The test system of one series is Sphaerotheca fuliginea. Description: Sphaerotheca test (cucumber)/protective. Format: in vivo. The note with it: Podosphaera fuliginea, 168 h, active compound concentration of 500 ppm, protective, evaluation 7 days after the inoculation, read-out: efficacy.
Series [1] is described as follows: log P by LC-MS, method [b], acid range pH 2.7. The format is physicochemical. The note with it: pH 2.7. Here is the method:
The log P values were measured in accordance with EEC Directive 79/831 Annex V.A8 by HPLC (High Performance Liquid Chromatography) on reversed-phase columns (C 18) using the methods below:
[b] The LC-MS determination in the acid range was carried out at pH 2.7 using the mobile phases 0.1% aqueous formic acid and acetonitrile (contains 0.1% formic acid)
linear gradient from 10% acetonitrile to 95% acetonitrile.

A short description of series [2]: log P by HPLC on reversed-phase columns (C 18), method [a], acidic range pH 2.3. Format: physicochemical. Here is the method: The log P values were measured in accordance with EEC Directive 79/831 Annex V.A8 by HPLC (High Performance Liquid Chromatography) on reversed-phase columns (C 18) using the methods below: [a] The determination was carried out in the acidic range at pH 2.3 using the mobile phases 0.1% aqueous phosphoric acid and acetronitrile linear gradient from 10% acetonitrile to 95% acetronitrile.

A short description of series [3]: physchem. Format: physicochemical. The following applies: pH 7.8. Here is the method:
The log P values were measured in accordance with EEC Directive 79/831 Annex V.A8 by HPLC (High Performance Liquid Chromatography) on reversed-phase columns (C 18) using the methods below: [c] The LC-MS determination in the neutral range was carried out at pH 7.8 using the mobile phases 0.001 molar aqueous ammonium bicarbonate solution and acetonitrile linear gradient from 10% acetonitrile to 95% acetonitrile.

The nature of series [4]: physchem. The format is physicochemical. The following applies: pH 7.
The format of series [5] is physicochemical. Here is the method:
The log P values were measured in accordance with EEC Directive 79/831 Annex V.A8 by HPLC (High Performance Liquid Chromatography) on reversed-phase columns (C 18) using the methods below: […]

The next series relates to Fusarium proliferatum. The series can be described thus: Production of Fumonisin FB1 by Fusarium proliferatum (microtitre plates; FB1 by HPLC-MS/MS, growth by OD620). The format is cell-based. The following applies: for IC50: Fusarium proliferatum, 144 h.
Another series deals with Fusarium graminearum. Description: microbe, parasite or virus in culture. Format: cell-based. The following applies: 168 h, read-out: activity in the inhibition of DON/AcDON.
A further series deals with Phakopsora pachyrhizi. Description: Phakopsora test (soya beans)/protective. The format is in vivo. The note with it: active compound concentration of 250 ppm, protective, evaluation 1 day after the inoculation.
The mark [6] stands for this setting: FB1 concentration in liquid medium after 6 days at 20° C., HPLC-MS/MS.

Like-named read-outs stand apart in the source and are kept apart here. Marks after values point to notes of the source that are not given here.

The values below come from patent US20110245242A1, “Heterocyclically Substituted Anilinopyrimides” (Bayer CropScience AG, priority 2008, published 2011).

One may read the chromatographic logP as a lipophilicity value derived from retention on a column. Low readings indicate a more hydrophilic compound, high ones a more lipophilic compound. For the compound `O=C1CCC(=O)N1c1cc(Nc2ncc(C(F)(F)F)c(NC3CC3)n2)ccc1Cl` [Example 119, 1-(2-Chloro-5-{[4-(cyclopropylamino)-5-(trifluoromethyl)pyrimidin-2-yl]amino}phenyl)pyrrolidine-2,5-dione], in the series with Sphaerotheca fuliginea, the pest or weed control at 500 ppm was at least 70%. The chromatographic logP was determined as 2.49 in series [1] and 2.49 in series [2] (pH 2.3, log P (pH 2.3)).
Turning to `O=CN(c1cccc(N2CCCC2=O)c1)c1ncc(Cl)c(NC2CC2)n1` [Example 217, N-[5-Chloro-4-(cyclopropylamino)pyrimidin-2-yl]-N-[3-(2-oxopyrrolidin-1-yl)phenyl]-formamide], the pest or weed control at 500 ppm in the series with Sphaerotheca fuliginea is at least 70%. Also, the chromatographic logP in series [1] was determined as 1.49; in series [2] (pH 2.3, log P (pH 2.3)), 1.22.
For the compound `S=C1CCCN1c1cccc(Nc2ncc(Cl)c(NC3CC3)n2)c1` [Example 33, 1-(3-{[5-Chloro-4-(cyclopropylamino)pyrimidin-2-yl]amino}phenyl)pyrrolidine-2-thione], the chromatographic logP came to 2.54 in “physchem [3]”; 1.69 in [2] (pH 2.3, log p); 2.54 in “physchem [4]”. Moreover, the pest or weed control at 500 ppm with Sphaerotheca fuliginea is at least 70%.
For the compound `COCC(C)Nc1nc(Nc2cccc(N3C(=O)CCC3=O)c2)ncc1Cl` (stereo not drawn) [Example 202], the log p is 1.02[d] in series [5], 2.13[c]; in “physchem [3]” and 1.26[b]; in [1].
Consider `CCC1CC(C)C(=O)N1c1cccc(Nc2ncc(Cl)c(NC3CC3)n2)c1` (stereo not drawn) [Example 206, 1-(3-{[5-Chloro-4-(cyclopropylamino)pyrimidin-2-yl]amino}phenyl)-5-ethyl-3-methylpyrrolidin-2-one], for which the chromatographic logP in the series “physchem [3]” is 3.15; in series [1], 2.19; in series [2] (pH 2.3, log P (pH 2.3)), 2.19. Moreover, in the series with Sphaerotheca fuliginea, the pest or weed control at 500 ppm was at least 70%.
Take `O=C1OCCN1c1cccc(Nc2ncc(Cl)c(NC3CCC3)n2)c1` [Example 59, 3-(3-{[5-Chloro-4-(cyclobutylamino)pyrimidin-2-yl]amino}phenyl)-1,3-oxazolidin-2-one]: the pest or weed control at 500 ppm in the series on Sphaerotheca fuliginea is at least 70%. In addition, the chromatographic logP was determined as 1.64 in series [1]; 1.64 in [2] (pH 2.3, log P (pH 2.3)); 1.64 in series [2] (pH 2.3, log p). For the same compound, the IC50 in the series on Fusarium proliferatum (FB1 concentration in liquid medium after 6 days at 20° C., HPLC-MS/MS, read-out: pI50 Fum (converted)) was 0.631 µM; with Fusarium proliferatum (OD620 at the beginning and after 6 days, read-out: pI50 growth (converted)) it was 2.51 µM. Besides, the inhibition at 50 µM in the series with Fusarium graminearum was above 80%.
As to `CCOC(=O)[C@@H]1CCC(=O)N1c1cccc(Nc2ncc(Cl)c(NC3CC3)n2)c1` [Example 190, Ethyl 1-(3-{[5-chloro-4-(cyclopropylamino)pyrimidin-2-yl]amino}phenyl)-5-oxo-L-prolinate], the chromatographic logP in the series “physchem [3]” was determined as 2.53; in [1], 1.69; in series [2] (pH 2.3, log P (pH 2.3)), 1.69. Further, the pest or weed control at 500 ppm in the series on Sphaerotheca fuliginea is at least 70%.
For `CCC1CC(C)C(=O)N1c1cccc(Nc2ncc(Br)c(NC3CCC3)n2)c1` (stereo not drawn) [Example 211], the log p in series [5] was 2.19[d]; in series [1], 2.63[b];.
As for `O=C1CCC(=O)N1c1cccc(Nc2ncc(Cl)c(NC3CC3)n2)c1` [Example 195], the log p was 0.99[d] in series [5] and 1.98[c]; in the series “physchem [3]”. Besides, the “pI50 Fum” value in the series on Fusarium proliferatum (setting [6]) is given as 6.2.
As for `FC(F)(F)c1cnc(Nc2cccc(N3CCCC3=S)c2)nc1NC1CC1` [Example 214], the log p is 2.86[c]; in “physchem [3]” and 2.59[b] in [1]. The “pI50 Fum” value with Fusarium proliferatum (setting [6]) came to 5.1. In the series with Fusarium proliferatum (OD620 at the beginning and after 6 days), the pI50 growth was 5. The compound also returned an efficacy in the series on Phakopsora pachyrhizi of at least 80%.
In the case of `COCC(=O)N(c1cccc(N2CCCC2=O)c1)c1ncc(Cl)c(NC2CC2)n1` [Example 231, N-[5-Chloro-4-(cyclopropylamino)pyrimidin-2-yl]-2-methoxy-N-[3-(2-oxopyrrolidin-1-yl)phenyl]acetamide], the chromatographic logP came to 1.82 in “physchem [3]”; 1.87 in [1]; 1.87 in series [2] (pH 2.3, log P (pH 2.3)). Further, the pest or weed control at 500 ppm with Sphaerotheca fuliginea is at least 70%.
Consider `O=C1CCC(=O)N1c1cccc(Nc2ncc(Cl)c(NC3CCC3)n2)c1` [Example 203], for which the log p is 1.24[d] in series [5], 2.32[c]; in “physchem [3]” and 1.48[b]; in [1].
